The source of these data is PubChem BioAssay (NCI).

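96-well plates; 48 h exposure; 5 concentrations. Endpoints by linear interpolation between flanking doses. Not reached: highest tested concentration assigned. The concentration for full growth arrest is given as TGI.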

Some test systems named below: P388/ADR leukemia; DLD-1 colon; P388 leukemia; DMS 273 small cell lung; SN12K1 renal; SNB-78 CNS; KM20L2 colon; LXFL 529 NSCLC.
Assay in all cases: NCI tumour cell line growth inhibition, 48 h

For `CCOC(=O)/C=C/c1c(C)[nH]c(=O)[nH]c1=O`, the TGI in the assay with P388/ADR leukemia was over 158 µM; in the assay with DLD-1 colon it was over 250 µM; in the assay with P388 leukemia it was over 141 µM; in the assay with DMS 273 small cell lung, over 250 µM; in the assay on SN12K1 renal, over 250 µM; in the assay with SNB-78 CNS, over 250 µM. The same compound returned a TGI in the assay with KM20L2 colon of over 250 µM.

On to `O=C(NN1C(=O)C(Cl)C1c1cccc([N+](=O)[O-])c1)c1ccccc1O` (centres undefined), for which the TGI with LXFL 529 NSCLC and in the assay with KM20L2 colon was over 100 µM throughout.

`c1ccc2c(c1)NCc1cc3ccccc3nc1O2`: the TGI in the assay on P388/ADR leukemia, with DLD-1 colon, with P388 leukemia, in the assay on DMS 273 small cell lung, with SN12K1 renal and in the assay with SNB-78 CNS was over 100 µM in each case.

On to `O=C1C(CO)=C[C@H](O)[C@H]2O[C@@H]12`, for which the TGI with P388/ADR leukemia stood at 225 µM; with DLD-1 colon, 227 µM; in the assay on P388 leukemia, 195 µM; in the assay on DMS 273 small cell lung it was 485 µM; with SN12K1 renal it was 278 µM; in the assay on SNB-78 CNS, 480 µM. In the assay on KM20L2 colon, this compound returned a TGI of over 625 µM.

Take `C/C(=N\NC(=S)N1CCC(N2CCCCC2)CC1)c1ccccn1`: the TGI in the assay on DLD-1 colon was over 100 µM; in the assay with DMS 273 small cell lung, 9.43 µM; in the assay with SNB-78 CNS, 27.5 µM; in the assay with LXFL 529 NSCLC, 13.6 µM; in the assay with KM20L2 colon, 14.2 µM.

On to `COc1cc(-c2ccc(N=Nc3ccc4c(S(=O)(=O)O)cc(S(=O)(=O)O)c(N)c4c3O)c(OC)c2)ccc1N=Nc1ccc2c(S(=O)(=O)O)cc(S(=O)(=O)O)c(N)c2c1O`, for which the TGI with P388/ADR leukemia, with DLD-1 colon, in the assay on P388 leukemia, in the assay on DMS 273 small cell lung, with SN12K1 renal and in the assay with SNB-78 CNS was over 100 µM throughout. In the assay on KM20L2 colon, this compound came in with a TGI of over 100 µM.
